This assay addresses Protein kinase C beta type Isoform 2 (Homo sapiens, UniProt P05771). The assay can be described thus: Protein Kinase C beta 2 (PKCpII) Assay. The procedure:
Protein Kinase C beta 2 (PKCpII) catalyzes the production of ADP from ATP that accompanies the phosphoryl transfer to the PKC Pseudosubstrate peptide (A→S, RFARKGSLRQKNV). This transfer is coupled to the oxidation of β-NADH through the activities of Pyruvate Kinase (PK) and Lactate Dehydrogenase (LDH). β-NADH conversion to NAD+ is monitored by the decrease in absorbance at 340 nm (e=6.22 cm−1 mM−1) using a Molecular Devices SPECTRA max PLUS spectrophotometer.A typical assay was carried out on a 96-well, clear microtiter plate in a Molecular Devices spectrophotometer for 20 minutes at 30° C. in 0.1 mL of assay buffer containing 50 mM HEPES, pH 7.4, 5 nM PKC, 23 units of pyruvate kinase, 33 units of lactate dehydrogenase, 0.15 mM peptide, 0.1 mM ATP, 1 mM DTT, 4 mM PEP, 8 mM MgCl2, 0.3 mM NADH, […]), 10 mg/mL PS, 50 ng/mL PMA, 7.5% DMSO and from about 10,000 nM to 0.169 nM compound inhibitor. Stock solutions of 3-sn-phosphatidyl-L-serine (PS) and phorbol-12-myristate-13-acetate (PMA) were sonicated for 30 seconds just prior to addition to assay buffer and assays were initiated by the addition of 100 μM ATP.

The values below come from BindingDB's records for patent US117808 (Pfizer, 2023).

Chain of Protein kinase C beta type Isoform 2 (P05771 as listed by the source): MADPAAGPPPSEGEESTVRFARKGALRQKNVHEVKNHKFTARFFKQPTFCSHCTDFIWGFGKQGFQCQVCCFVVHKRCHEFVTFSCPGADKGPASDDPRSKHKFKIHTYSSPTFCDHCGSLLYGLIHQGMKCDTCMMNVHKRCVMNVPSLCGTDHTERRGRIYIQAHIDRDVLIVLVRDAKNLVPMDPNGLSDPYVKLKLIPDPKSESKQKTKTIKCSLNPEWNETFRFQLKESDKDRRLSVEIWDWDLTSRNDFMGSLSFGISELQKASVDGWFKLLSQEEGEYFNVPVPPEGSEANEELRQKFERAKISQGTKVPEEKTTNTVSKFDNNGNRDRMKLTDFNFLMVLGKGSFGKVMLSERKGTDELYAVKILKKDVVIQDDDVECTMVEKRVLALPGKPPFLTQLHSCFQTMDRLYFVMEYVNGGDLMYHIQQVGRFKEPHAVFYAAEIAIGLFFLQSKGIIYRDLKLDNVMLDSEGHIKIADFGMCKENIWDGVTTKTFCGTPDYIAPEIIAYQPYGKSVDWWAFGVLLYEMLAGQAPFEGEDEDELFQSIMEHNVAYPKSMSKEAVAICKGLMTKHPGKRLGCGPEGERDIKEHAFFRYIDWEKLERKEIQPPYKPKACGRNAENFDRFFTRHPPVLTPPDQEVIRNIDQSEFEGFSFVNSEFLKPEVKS

As to `Cc1ncc(F)c(Nc2n[nH]c3c2CN(C(=O)N2C[C@@H](C)N(C)C[C@@H]2C)C3(C)C)n1` [US11220518, Ex. No. H2], affinity was put at a Ki of 2.63 nM.
